This passage reports melting point and EC50 results from US7423159B2, “Agent for preventing or treating neuropathy” (Takeda Pharmaceutical Company Limited, priority 2002, dated 2008).

By melting point is commonly meant the temperature, or range, at which the solid turns liquid.

One data set has as its system rat C6 glioma cells. The data set is described as follows: GDNF production promoting action in rat C6 glioma cells (ELISA of culture supernatant). Type of data set: cell-based. The conditions noted are these: concentration which causes 50% increase of GDNF relative to the control group, cultured 2 days with test compound, GDNF in culture supernatant by ELISA. The method, then:
Using rat C6 glioma cells, the GDNF production promoting action of the compound of the present invention was evaluated.
Rat C6 glioma cells (ATCC) were grown in Dulbecco's Modified Eagle's Medium (DMEM) containing 10% FBS (Fetal Bovine Serum) in a collagen type 1 coated 75 cm^2 culture flask (SUMITOMO BAKELITE Co., Ltd.) until near confluent, detached by trypsin treatment and washed once with DMEM containing 10% FBS.
The cells after washing were diluted with 10% FBS-containing DMEM to a concentration of 5×10^4/mL and seeded at 0.3 mL/well in each well of collagen type 1 coated 48 well culture dish (SUMITOMO BAKELITE Co., Ltd.). After 3 days, the culture in the culture dish was placed in a 1% BSA (bovine serum albumin, Sigma)-containing DMEM medium supplemented with various concentrations of test compound, and further cultured for 2 days. The culture supernatant was recovered and preserved at −80° C. until measurement of GDNF.
The content of GDNF in the culture supernatant was measured by the following ELISA Method.
Anti-GDNF antibody (MAB212, R&D) was diluted with TBS (Tris buffered physiological saline: 25 mmol/L Tris-HCl (pH 8.0), 150 mmol/L NaCl) to 2 μg/mL and dispensed at 0.1 mL/well to each well of a 96-well immunoplate. The 96-well immunoplate was incubated overnight at 4° C. and washed once with TBS containing Tween 20 at 0.05% (hereinafter to be abbreviated as TBST). A blocking solution (TBS containing 1% BSA and 5% sucrose) was added at 0.2 mL/well to each well after washing, and the plate was incubated at room temperature for 1 hr., after which each well was washed twice with TBST. The culture supernatant (0.1 mL) of the aforementioned C6 cells was added to each well after washing and the plate was incubated at room temperature for 3 hrs., after which the wells were washed 5 times with TBST. The 500-fold diluted anti-GDNF antibody (G2791, Promega) was added by 0.1 mL to each well after washing, incubated at room temperature for 2 hrs. and washed 5 times with TBST. A 5000-fold diluted horseradish peroxidase-labeled anti-chicken IgY antibody (G1351, Promega) was added at 0.1 mL/well to each well after washing, incubated at room temperature for 2 hrs. and washed 5 times with TBST. A substrate solution (TMB substrate solution, BIO-RAD) was added at 0.1 mL/well to each well after washing and allowed to develop color at room temperature for 8 min. To stop the reaction, 0.1 mL of 1 mol/L phosphoric acid was added to each well in coloring developing reaction. The absorbance of the reaction solution at 450 nm wavelength was measured.
In the same manner as above except the test compound was not used, the ELISA Method was performed and this was used as a control group.
Using various concentrations of GDNF (Promega), ELISA Method was performed in the same manner as above and standard line was prepared.
From the aforementioned absorbance and standard line, GDNF content in a sample was calculated and the concentration (EC50), which causes 50% increase of GDNF relative to the control group was calculated from the regression line.
For orientation: An ELISA detects its analyte on a solid surface through an enzyme-linked reagent.

The mark [1] stands for this setting: Rattus norvegicus, C6 glioma, 48 h.

In turn, `CCOP(=O)(Cc1ccc(NC(=O)/C=C/c2cnn(C)c2-c2ccoc2)cc1)OCC` [Example 147, Diethyl 4-[{(2E)-3-[5-(3-furyl)-1-methyl-1H-pyrazol-4-yl]prop-2-enoyl)amino]benzylphosphonate] yielded a melting point of 208 to 210 °C. In the data set on rat C6 glioma cells (setting [1]), this compound came in with an EC50 of 460 nM.

`Cn1ncc(/C=C/C(=O)Nc2ccc(Cn3cncn3)cc2)c1-c1ccc(F)cc1` [Example 163, (2E)-3-[5-(4-Fluorophenyl)-1-methyl-1H-pyrazol-4-yl]-N-[4-(1H-1,2,4-triazol-1-ylmethyl)phenyl]acrylamide] returned a melting point of 225 to 226 °C. The EC50 in the data set on rat C6 glioma cells (setting [1]) worked out at 190 nM.

For “(2E)-3-[5-(4-Fluorophenyl)-1-methyl-1H-pyrazol-4-yl]-N-[4-(1-pyrrolidinylmethyl) phenyl]acrylamide [Example 193]”, the EC50 in the data set on rat C6 glioma cells was 160 nM.

`Cc1nccn1Cc1ccc(NC(=O)/C=C/c2cnn(C)c2-c2ccc(F)cc2)cc1` [Example 190, (2E)-3-[5-(4-Fluorophenyl)-1-methyl-1H-pyrazol-4-yl]-N-{4-[(2-methyl-1H-imidazol-1-yl)methyl]phenyl}acrylamide] gave a melting point of 232 to 233 °C. This compound also returned an EC50 in the data set with rat C6 glioma cells (setting [1]) of 590 nM.

For `COP(=O)(Cc1ccc(NC(=O)/C=C/c2cnn(C)c2-c2ccc(F)cc2)cc1)OC` [Example 1, (2E)-N-[4-(dimethylphosphonomethyl)phenyl]-3-[5-(4-fluorophenyl)-1-methyl-1H-pyrazol-4-yl]acrylamide], the melting point was 209 to 210 °C. This compound also displayed an EC50 in the data set on rat C6 glioma cells (setting [1]) of 200 nM.

With `CCOP(=O)(Cc1ccc(NC(=O)/C=C/c2cnn(C)c2-c2ccccc2)cc1)OCC` [Example 11, (2E)-N-[4-(Diethylphosphonomethyl)phenyl]-3-(1-methyl-5-phenyl-1H-pyrazol-4-yl)acrylamide], the melting point fell in the range of 239 to 240 °C. In the data set on rat C6 glioma cells (setting [1]), the EC50 was found to be 900 nM.

Compound `CCCC(=O)NCc1ccc(NC(=O)/C=C/c2cnn(C)c2-c2ccc(F)cc2)cc1` [Example 140, (2E)-N-{4-[(Butyrylamino)methyl]phenyl}-3-[5-(4-fluorophenyl)-1-methyl-1H-pyrazol-4-yl]acrylamide] registered a melting point of 259 to 260 °C. The EC50 in the data set on rat C6 glioma cells (setting [1]) came out at 220 nM.

The compound `CCOP(=O)(Cc1ccc(NC(=O)/C=C/c2cnn(C)c2-c2ccc(Cl)cc2)cc1)OCC` [Example 9, (2E)-3-[5-(4-Chlorophenyl)-1-methyl-1H-pyrazol-4-yl]-N-[4-(diethylphosphonomethyl)phenyl]acrylamide] returned a melting point of 217 to 218 °C. Also, the EC50 in the data set on rat C6 glioma cells (setting [1]) came out at 2500 nM.

Regarding `CCOP(=O)(Cc1ccc(NC(=O)/C=C/c2snnc2-c2ccc(F)cc2)cc1)OCC` [Example 71, (2E)-N-[4-(Diethylphosphonomethyl)phenyl]-3-[4-(4-fluorophenyl)-1,2,3-thiadiazol-5-yl]acrylamide], the melting point is 173 to 175 °C. The compound also registered an EC50 in the data set on rat C6 glioma cells (setting [1]) of 1700 nM.

In the case of `CCCCC1(CC)COP(=O)(Cc2ccc(NC(=O)/C=C/c3cnn(C)c3-c3ccc(F)cc3)cc2)OC1` (stereo not shown) [Example 27, (2E)-N-{4-[(5-Butyl-5-ethyl-2-oxide-1,3,2-dioxaphosphinan-2-yl)methyl]phenyl}-3-[5-(4-fluorophenyl)-1-methyl-1H-pyrazol-4-yl]acrylamide], the EC50 in the data set with rat C6 glioma cells amounted to 500 nM.

The compound `Cn1ncc(/C=C/C(=O)Nc2ccc(CCc3cscn3)cc2)c1-c1ccc(F)cc1` [Example 91, (2E)-3-[5-(4-Fluorophenyl)-1-methyl-1H-pyrazol-4-yl]-N-{4-[2-(1,3-thiazol-4-yl)ethyl]phenyl}acrylamide] returned a melting point of 211 to 212 °C. Also, the EC50 in the data set with rat C6 glioma cells (setting [1]) is 490 nM.

Take `CCOP(=O)(Cc1ccc(NC(=O)/C=C/c2cnn(C)c2-c2ccc(OC)cc2)cc1)OCC` [Example 5, (2E)-N-[4-(Diethylphosphonomethyl)phenyl]-3-[5-(4-methoxyphenyl)-1-methyl-1H-pyrazol-4-yl]acrylamide]: the melting point lay in the range of 199 to 200 °C. In addition, in the data set on rat C6 glioma cells (setting [1]), the EC50 came to 1000 nM.

Regarding `CCOP(=O)(Cc1ccc(NC(=O)/C=C/c2cncn2-c2ccc(F)cc2)cc1)OCC` [Example 61, (2E)-N-[4-(Diethylphosphonomethyl)phenyl]-3-[1-(4-fluorophenyl)-1H-imidazol-5-yl]acrylamide], the melting point lay in the range of 165 to 166 °C. In addition, the EC50 in the data set with rat C6 glioma cells (setting [1]) was 400 nM.

In the data set on rat C6 glioma cells, `Cn1ncc(/C=C/C(=O)Nc2ccc(-n3ccnc3)cc2)c1-c1ccc(F)cc1` [Example 195] returned an EC50 of 120 nM.

As to `Cc1cccc(C(O)c2ccc(NC(=O)/C=C/c3cnn(C)c3-c3ccc(F)cc3)cc2)n1` (stereo not shown) [Example 50, (2E)-3-[5-(4-Fluorophenyl)-1-methyl-1H-pyrazol-4-yl]-N-{4-[hydroxy(6-methyl-2-pyridinyl)methyl]phenyl}acrylamide], in the data set with rat C6 glioma cells (setting [1]), the EC50 stood at 400 nM.

`CCOP(=O)(OCC)c1ccc(NC(=O)/C=C/c2cnn(C)c2-c2ccc(F)cc2)cc1` came in with a melting point of 174 to 176 °C.

Compound `CCOP(=O)(Cc1ccc(NC(=O)CCc2cnn(C)c2-c2ccc(F)cc2)cc1)OCC` returned a melting point of 143 to 144 °C.

In turn, `CCOP(=O)(Cc1ccc(NC(=O)/C=C/c2cnn(C)c2)cc1)OCC` registered a melting point of 201 to 202 °C.

`COP(=O)(Cc1ccc(NC(=O)/C=C/c2c(C)nn(C)c2-c2ccc(F)cc2)cc1)OC` returned a melting point of 195 to 198 °C.

Turning to `CCOP(=O)(Cc1ccc(NC(=O)/C=C/c2c(-c3ccc(F)cc3)cnn2C)cc1)OCC`, the melting point lay within 138 to 139 °C.

Compound `Cn1ncc(/C=C/C(=O)Nc2ccc(CC(=O)O)cc2)c1-c1ccc(F)cc1` [Example 133, [4-({(2E)-3-[5-(4-fluorophenyl)-1-methyl-1H-pyrazol-4-yl]prop-2-enoyl]amino}phenyl]acetic acid] displayed a melting point of 245 to 246 °C.

The compound `CCOC(=O)Cc1ccc(NC(=O)/C=C/c2cnn(C)c2-c2ccc(F)cc2)cc1` [Example 109, ethyl [4-({(2E)-3-[5-(4-fluorophenyl)-1-methyl-1H-pyrazol-4-yl]prop-2-enoyl}amino)phenyl]acetate] returned a melting point of 177 to 178 °C.

As for `Cn1ncc(/C=C/C(=O)Nc2ccc(Cn3cnnn3)cc2)c1-c1ccc(F)cc1` [Example 199, (2E)-3 [5-(4-Fluorophenyl)-1-methyl-1H-pyrazol-4-yl]-N-[4-(1H-tetrazol-1-ylmethyl)phenyl]acrylamide], the melting point lay within 233 to 234 °C.

In turn, `CCOP(=O)(Cc1ccc(NC(=O)/C=C/c2cnn(CC)c2-c2ccc(F)cc2)cc1)OCC` came in with a melting point of 226 to 227 °C.

With `CCc1csc(CCc2ccc(NC(=O)/C=C/c3cnn(C)c3-c3ccc(F)cc3)cc2)n1` [Example 113, (2E)-N-{4-[2-(4-Ethyl-1,3-thiazol-2-yl)ethyl]phenyl}-3-[5-(4-fluorophenyl)-1-methyl-1H-pyrazol-4-yl]acrylamide], the melting point lay in the range of 200 to 201 °C.

Turning to `CCOP(=O)(Cc1ccc(NC(=O)/C=C/c2cnn(C)c2-c2cccc3ccccc23)cc1)OCC`, the melting point was in the range of 229 to 231 °C.

In turn, `Cc1nc2ccccc2n1Cc1ccc(NC(=O)/C=C/c2cnn(C)c2-c2ccc(F)cc2)cc1` [Example 173, (2E)-3-[5-(4-Fluorophenyl)-1-methyl-1H-pyrazol-4-yl]-N-{4-[(2-methyl-1H-benzimidazol-1-yl)methyl]phenyl}acrylamide] yielded a melting point of 263 to 264 °C.

In turn, `CC[S+]([O-])Cc1ccc(NC(=O)/C=C/c2cnn(C)c2-c2ccc(F)cc2)cc1` (stereo not shown) [Example 216, (2E)-N-{4-[(Ethylsulfinyl)methyl]phenyl}-3-[5-(4-fluorophenyl)-1-methyl-1H-pyrazol-4-yl]acrylamide] returned a melting point of 228 to 229 °C.

`Cn1ncc(/C=C/C(=O)Nc2ccc(-n3cccn3)cc2)c1-c1ccc(F)cc1` [Example 197, (2E)-3-[5-(4-Fluorophenyl)-1-methyl-1H-pyrazol-4-yl]-N-[4-(1H-pyrazol-1-yl)phenyl]acrylamide] showed a melting point of 200 to 201 °C.
